# Assay results taken from patent US12351596B2 (priority 2019, dated 2025).
# “Also recorded” adds a separate entry of the source.
# Tested on: antibodies present in serum samples from melioidosis patients
# Assay type: binding, human
compound,measurement,value
"CO[C@H]1[C@@H](OC(C)=O)[C@H](O[C@@H]2[C@@H](O)[C@H](O[C@@H]3[C@H](O)[C@H](C)O[C@@H](O[C@@H]4[C@@H](O)[C@H](OCCCCCN)O[C@H](CO)[C@H]4O)[C@@H]3OC(C)=O)O[C@H](CO)[C@H]2O)O[C@@H](C)[C@H]1OC(C)=O.Cl [tetrasaccharide 8, (5-Amino-1-pentyl) 2,4-di-O-acetyl-6-deoxy-3-O-methyl-α-L-talopyranosyl-(1→3)-β-D-glucopyranosyl-(1→3)-2-O-acetyl-6-deoxy-α-L-talopyranosyl-(1→3)-β-D-glucopyranoside hydrochloride]",ability to detect antibodies present in serum samples from melioidosis patients,exquisite mimics of the whole Bp and Bm LPS OAgs; also recorded: able to detect antibodies present in serum samples from melioidosis patients
(5-Amino-1-pentyl) 2-O-acetyl-6-deoxy-3-O-methyl-α-L-talopyranosyl-(1→3)-β-D-glucopyranosyl-(1→3)-2-O-acetyl-6-deoxy-α-L-talopyranosyl-(1→3)-δ-D-glucopyranoside hydrochloride [tetrasaccharide 9],ability to detect antibodies present in serum samples from melioidosis patients,exquisite mimics of the whole Bp and Bm LPS OAgs; also recorded: able to detect antibodies present in serum samples from melioidosis patients
same,ability to detect the antibodies compared with other antigens,as effective as tetrasaccharide 8
